Reference: BindingDB's records for PubMed 7523657 (Eli Lilly, 1994)

Key:
[1] = target: 5-hydroxytryptamine receptor 1D (Rattus norvegicus, UniProt P28565)
[2] = target: 5-hydroxytryptamine receptor 1B (Rattus norvegicus, UniProt P28564)
[3] = target: D(2) dopamine receptor (Rattus norvegicus, UniProt P61169)
[4] = target: Gamma-aminobutyric acid receptor subunit alpha-1 (Rattus norvegicus, UniProt P62813)
[5] = target: Histamine H1 receptor (Rattus norvegicus, UniProt P31390)
[6] = target: T1, Muscarinic acetylcholine receptor M2 (Rattus norvegicus, UniProt P10980)
T1 sequence (P10980 whole entry): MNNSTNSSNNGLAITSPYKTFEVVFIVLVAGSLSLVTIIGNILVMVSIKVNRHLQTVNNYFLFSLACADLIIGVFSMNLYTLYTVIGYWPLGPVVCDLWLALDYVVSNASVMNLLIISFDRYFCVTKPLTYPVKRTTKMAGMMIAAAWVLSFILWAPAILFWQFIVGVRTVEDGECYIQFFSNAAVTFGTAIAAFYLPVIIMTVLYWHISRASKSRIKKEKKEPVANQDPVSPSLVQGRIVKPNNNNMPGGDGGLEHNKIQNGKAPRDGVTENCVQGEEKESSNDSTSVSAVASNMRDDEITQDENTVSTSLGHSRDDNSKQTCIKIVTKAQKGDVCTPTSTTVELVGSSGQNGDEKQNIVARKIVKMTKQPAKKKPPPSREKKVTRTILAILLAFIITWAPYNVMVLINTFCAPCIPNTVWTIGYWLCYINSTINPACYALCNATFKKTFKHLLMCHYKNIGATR

[7] = target: T2, 5-hydroxytryptamine receptor 2C (Rattus norvegicus, UniProt P08909)
T2 sequence (P08909 whole entry): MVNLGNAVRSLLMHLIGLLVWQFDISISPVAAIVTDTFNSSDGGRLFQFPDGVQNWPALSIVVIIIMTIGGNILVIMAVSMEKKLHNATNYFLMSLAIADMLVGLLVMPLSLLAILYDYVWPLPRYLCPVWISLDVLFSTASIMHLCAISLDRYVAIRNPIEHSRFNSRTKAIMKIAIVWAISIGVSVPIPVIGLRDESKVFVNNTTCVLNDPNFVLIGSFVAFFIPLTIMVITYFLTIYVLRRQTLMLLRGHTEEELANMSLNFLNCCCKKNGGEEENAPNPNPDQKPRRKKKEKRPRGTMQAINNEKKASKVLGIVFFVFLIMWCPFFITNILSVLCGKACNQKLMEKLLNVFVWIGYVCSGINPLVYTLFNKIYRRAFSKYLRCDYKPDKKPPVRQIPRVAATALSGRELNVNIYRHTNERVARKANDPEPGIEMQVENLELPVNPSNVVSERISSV

[8] = target: T3, Alpha-2C adrenergic receptor (Rattus norvegicus, UniProt P22086)
T3 sequence (P22086 whole entry): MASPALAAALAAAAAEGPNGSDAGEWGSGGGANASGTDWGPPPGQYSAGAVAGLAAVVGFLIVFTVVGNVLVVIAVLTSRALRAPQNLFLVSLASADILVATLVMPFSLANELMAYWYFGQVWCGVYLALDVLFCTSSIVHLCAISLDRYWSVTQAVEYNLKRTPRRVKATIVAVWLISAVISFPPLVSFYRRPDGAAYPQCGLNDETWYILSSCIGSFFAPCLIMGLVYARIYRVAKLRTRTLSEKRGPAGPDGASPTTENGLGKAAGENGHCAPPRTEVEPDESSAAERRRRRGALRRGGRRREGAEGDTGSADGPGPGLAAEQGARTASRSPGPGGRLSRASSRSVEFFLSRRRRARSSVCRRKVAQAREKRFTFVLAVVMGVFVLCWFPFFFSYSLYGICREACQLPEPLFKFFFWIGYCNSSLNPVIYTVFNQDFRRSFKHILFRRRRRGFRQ

[9] = target: T4, Alpha-1A adrenergic receptor (Rattus norvegicus, UniProt P43140)
T4 sequence (P43140 whole entry): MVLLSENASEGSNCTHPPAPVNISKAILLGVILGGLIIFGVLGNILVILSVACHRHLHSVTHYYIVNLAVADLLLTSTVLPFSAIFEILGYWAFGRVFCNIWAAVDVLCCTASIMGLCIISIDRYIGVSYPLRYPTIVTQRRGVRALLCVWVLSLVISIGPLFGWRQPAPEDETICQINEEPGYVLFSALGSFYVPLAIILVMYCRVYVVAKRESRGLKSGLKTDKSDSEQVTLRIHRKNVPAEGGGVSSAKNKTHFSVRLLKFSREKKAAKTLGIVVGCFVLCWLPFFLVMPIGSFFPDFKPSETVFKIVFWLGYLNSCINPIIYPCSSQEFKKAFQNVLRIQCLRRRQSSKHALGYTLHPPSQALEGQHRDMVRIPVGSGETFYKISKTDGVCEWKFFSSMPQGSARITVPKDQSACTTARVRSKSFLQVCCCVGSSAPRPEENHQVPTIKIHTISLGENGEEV

[10] = target: T5, 5-hydroxytryptamine receptor 3A (Rattus norvegicus, UniProt P35563)
T5 sequence (P35563 whole entry): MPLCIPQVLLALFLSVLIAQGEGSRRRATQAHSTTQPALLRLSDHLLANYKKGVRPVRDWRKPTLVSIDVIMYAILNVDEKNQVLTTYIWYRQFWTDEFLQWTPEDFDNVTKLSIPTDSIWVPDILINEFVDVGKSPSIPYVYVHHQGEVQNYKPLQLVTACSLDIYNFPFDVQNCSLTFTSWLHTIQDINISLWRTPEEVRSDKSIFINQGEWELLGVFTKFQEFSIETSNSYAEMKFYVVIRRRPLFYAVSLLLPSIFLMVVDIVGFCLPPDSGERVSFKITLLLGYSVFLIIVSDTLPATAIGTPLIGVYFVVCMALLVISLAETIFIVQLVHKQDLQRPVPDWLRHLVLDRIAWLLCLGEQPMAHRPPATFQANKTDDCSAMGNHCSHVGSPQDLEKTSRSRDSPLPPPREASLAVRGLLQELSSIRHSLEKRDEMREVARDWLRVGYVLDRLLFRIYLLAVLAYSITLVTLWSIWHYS

[11] = target: D(1A) dopamine receptor (Rattus norvegicus, UniProt P18901)
[12] = target: 5-hydroxytryptamine receptor 2A (Rattus norvegicus, UniProt P14842)
[13] = target: Beta-2 adrenergic receptor (Rattus norvegicus, UniProt P10608)
Beta-2 adrenergic receptor, sequence (P10608 whole entry): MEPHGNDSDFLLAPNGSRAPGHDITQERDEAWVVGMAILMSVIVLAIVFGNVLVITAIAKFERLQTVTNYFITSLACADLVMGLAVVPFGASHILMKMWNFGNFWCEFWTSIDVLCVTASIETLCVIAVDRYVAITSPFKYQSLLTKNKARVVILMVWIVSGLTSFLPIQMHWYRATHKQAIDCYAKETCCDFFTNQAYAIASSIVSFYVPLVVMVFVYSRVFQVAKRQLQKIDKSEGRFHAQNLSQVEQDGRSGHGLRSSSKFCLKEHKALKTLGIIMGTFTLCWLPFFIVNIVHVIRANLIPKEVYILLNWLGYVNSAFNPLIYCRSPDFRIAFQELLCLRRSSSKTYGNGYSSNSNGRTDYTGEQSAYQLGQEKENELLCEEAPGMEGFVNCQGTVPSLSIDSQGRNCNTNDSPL

D(1A) dopamine receptor, sequence (P18901 whole entry): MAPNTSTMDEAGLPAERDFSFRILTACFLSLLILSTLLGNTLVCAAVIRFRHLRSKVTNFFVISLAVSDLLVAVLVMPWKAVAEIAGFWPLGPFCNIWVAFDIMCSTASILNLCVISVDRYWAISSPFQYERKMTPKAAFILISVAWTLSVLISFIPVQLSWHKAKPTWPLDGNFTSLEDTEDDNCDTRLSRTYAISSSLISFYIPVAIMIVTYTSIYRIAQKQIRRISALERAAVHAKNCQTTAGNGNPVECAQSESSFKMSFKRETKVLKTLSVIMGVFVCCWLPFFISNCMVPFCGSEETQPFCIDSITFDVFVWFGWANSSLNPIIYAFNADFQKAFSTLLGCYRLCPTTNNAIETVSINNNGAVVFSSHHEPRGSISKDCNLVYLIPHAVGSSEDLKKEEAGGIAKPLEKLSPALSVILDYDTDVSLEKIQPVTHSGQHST
5-hydroxytryptamine receptor 1B, sequence (P28564 whole entry): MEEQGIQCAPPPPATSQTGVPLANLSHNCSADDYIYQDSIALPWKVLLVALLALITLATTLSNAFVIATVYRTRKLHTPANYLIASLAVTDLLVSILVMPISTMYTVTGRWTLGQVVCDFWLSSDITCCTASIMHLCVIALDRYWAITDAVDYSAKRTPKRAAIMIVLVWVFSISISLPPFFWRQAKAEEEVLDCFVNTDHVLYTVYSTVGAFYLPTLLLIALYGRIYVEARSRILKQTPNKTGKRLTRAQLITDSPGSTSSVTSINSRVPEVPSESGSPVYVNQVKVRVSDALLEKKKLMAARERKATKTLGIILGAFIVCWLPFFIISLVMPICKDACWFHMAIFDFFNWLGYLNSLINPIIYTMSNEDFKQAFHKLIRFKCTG
Histamine H1 receptor, sequence (P31390 whole entry): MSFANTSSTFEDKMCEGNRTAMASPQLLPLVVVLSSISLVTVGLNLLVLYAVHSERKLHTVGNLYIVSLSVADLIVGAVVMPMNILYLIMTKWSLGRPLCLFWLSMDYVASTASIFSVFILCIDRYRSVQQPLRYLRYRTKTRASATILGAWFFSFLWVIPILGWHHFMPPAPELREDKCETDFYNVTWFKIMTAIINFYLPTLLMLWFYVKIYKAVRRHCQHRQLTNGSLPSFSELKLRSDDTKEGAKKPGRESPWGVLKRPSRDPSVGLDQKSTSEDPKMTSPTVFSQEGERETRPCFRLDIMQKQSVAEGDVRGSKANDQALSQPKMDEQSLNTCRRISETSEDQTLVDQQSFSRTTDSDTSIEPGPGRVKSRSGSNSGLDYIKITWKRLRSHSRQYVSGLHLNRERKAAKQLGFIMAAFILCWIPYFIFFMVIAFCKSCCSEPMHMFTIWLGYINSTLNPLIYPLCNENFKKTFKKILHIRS
Gamma-aminobutyric acid receptor subunit alpha-1, sequence (P62813 whole entry): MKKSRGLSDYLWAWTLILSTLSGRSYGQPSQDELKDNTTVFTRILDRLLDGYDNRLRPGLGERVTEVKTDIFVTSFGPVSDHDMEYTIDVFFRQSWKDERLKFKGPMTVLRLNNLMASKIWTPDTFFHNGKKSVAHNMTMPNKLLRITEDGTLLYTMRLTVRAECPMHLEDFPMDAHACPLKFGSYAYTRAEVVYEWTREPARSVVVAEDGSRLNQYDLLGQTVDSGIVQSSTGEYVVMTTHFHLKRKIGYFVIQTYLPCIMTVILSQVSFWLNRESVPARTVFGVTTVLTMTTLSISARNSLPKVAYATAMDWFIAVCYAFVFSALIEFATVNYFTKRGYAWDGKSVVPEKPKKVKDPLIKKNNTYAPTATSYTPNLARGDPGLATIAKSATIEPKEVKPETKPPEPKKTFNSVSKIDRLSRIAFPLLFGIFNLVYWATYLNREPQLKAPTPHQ
D(2) dopamine receptor, sequence (P61169 whole entry): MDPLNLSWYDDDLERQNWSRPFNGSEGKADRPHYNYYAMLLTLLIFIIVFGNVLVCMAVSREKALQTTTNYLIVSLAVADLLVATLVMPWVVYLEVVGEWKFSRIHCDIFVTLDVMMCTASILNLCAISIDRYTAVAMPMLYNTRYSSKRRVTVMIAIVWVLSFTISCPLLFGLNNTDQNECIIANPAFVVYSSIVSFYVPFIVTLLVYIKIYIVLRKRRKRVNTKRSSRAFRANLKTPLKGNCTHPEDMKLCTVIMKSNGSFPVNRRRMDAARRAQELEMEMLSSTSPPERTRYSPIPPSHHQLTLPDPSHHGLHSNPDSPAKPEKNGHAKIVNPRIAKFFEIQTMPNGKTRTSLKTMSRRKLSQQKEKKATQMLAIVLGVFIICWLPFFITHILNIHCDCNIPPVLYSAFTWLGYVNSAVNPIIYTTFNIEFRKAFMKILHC
5-hydroxytryptamine receptor 2A, sequence (P14842 whole entry): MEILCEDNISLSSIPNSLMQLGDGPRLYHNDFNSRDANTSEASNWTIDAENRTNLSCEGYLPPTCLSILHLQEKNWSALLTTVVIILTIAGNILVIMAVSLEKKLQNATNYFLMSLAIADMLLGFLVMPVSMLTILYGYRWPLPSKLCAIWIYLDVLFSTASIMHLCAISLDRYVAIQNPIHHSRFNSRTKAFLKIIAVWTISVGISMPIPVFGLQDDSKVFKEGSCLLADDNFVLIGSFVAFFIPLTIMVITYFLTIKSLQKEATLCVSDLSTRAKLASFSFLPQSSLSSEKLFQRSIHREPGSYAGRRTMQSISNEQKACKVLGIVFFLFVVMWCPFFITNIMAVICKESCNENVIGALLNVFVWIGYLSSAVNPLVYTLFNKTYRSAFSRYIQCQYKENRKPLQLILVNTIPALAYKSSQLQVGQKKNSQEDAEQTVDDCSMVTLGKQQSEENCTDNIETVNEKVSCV
5-hydroxytryptamine receptor 1D, sequence (P28565 whole entry): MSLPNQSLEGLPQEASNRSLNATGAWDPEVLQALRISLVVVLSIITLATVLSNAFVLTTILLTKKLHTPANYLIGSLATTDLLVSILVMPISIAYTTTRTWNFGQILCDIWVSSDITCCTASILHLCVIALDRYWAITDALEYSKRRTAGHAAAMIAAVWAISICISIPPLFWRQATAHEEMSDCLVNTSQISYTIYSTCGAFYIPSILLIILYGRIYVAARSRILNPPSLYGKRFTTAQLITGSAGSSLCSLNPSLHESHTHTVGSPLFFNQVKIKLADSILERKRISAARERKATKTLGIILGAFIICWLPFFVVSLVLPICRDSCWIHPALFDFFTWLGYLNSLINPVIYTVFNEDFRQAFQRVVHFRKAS

`CCCN(CCC)C1Cc2c[nH]c3ccc(C(C)=O)c(c23)C1` (stereo not drawn) [LY-293384] was tested, and the Ki [1] was 66.9 nM, the Ki [2] was 1000 nM and the Ki [3] was 1000 nM. For the same compound, the Ki [4] was 1000 nM, the Ki [5] was 1000 nM and the Ki [6] was 1000 nM. The Ki [7] was 1000 nM, the Ki [8] was 1000 nM and the Ki [9] was 1000 nM. For the same compound, the Ki [10] was 1000 nM, the Ki [11] was 1000 nM and the Ki [12] was 1000 nM. For the same compound, the Ki [13] was 1000 nM.
